Test results published in publication PMC7156458, “Synthetic biology based construction of biological activity-related library of fungal decalin-containing diterpenoid pyrones” (Nature Communications, 2020).

Molecular target: Aβ42 (Homo sapiens, UniProt P05067)
Assay: Th-T (thioflavin-T) assay of Aβ42 aggregation
Format: biochemical
Details: for Th-T assay plate reading, mean of three wells (Supplementary Fig. 47): source data, Ab alone and No Ab as controls

Sequence of Aβ42 (P05067 672-713): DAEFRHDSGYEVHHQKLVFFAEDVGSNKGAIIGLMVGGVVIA

C=C1CCC2C(C)(CC(=O)C=C(C)C)C(O)CCC2(C)C1Cc1c(OC)oc(C)c(C)c1=O (stereo not shown) [Compound 25]
Th-T assay plate reading, mean of three wells (Supplementary Fig. 47) (measurement M10): 0.6365 | Th-T assay plate reading, mean of three wells (Supplementary Fig. 47) (measurement M11): 0.7058 | Th-T assay plate reading, mean of three wells (Supplementary Fig. 47) (measurement M12): 0.8261 | Th-T assay plate reading, mean of three wells (Supplementary Fig. 47) (measurement M13): 1.145 | Th-T assay plate reading, mean of three wells (Supplementary Fig. 47) (measurement M14): 1.723 | Th-T assay plate reading, mean of three wells (Supplementary Fig. 47) (measurement M15): 2.352 | Th-T assay plate reading, mean of three wells (Supplementary Fig. 47) (measurement M16): 2.814 | Th-T fluorescence, mean of three wells (reading M17, Supplementary Fig. 47 source data): 3.101 | Th-T fluorescence, mean of three wells (reading M18, Supplementary Fig. 47 source data): 3.246 | Th-T fluorescence, mean of three wells (reading M19, Supplementary Fig. 47 source data): 3.285 | Th-T fluorescence, mean of three wells (reading M20, Supplementary Fig. 47 source data): 3.357 | Th-T fluorescence, mean of three wells (reading M21, Supplementary Fig. 47 source data): 3.385 | Th-T fluorescence, mean of three wells (reading M22, Supplementary Fig. 47 source data): 3.422 | Th-T fluorescence, mean of three wells (reading M23, Supplementary Fig. 47 source data): 3.453 | Th-T fluorescence, mean of three wells (reading M24, Supplementary Fig. 47 source data): 3.499 | Th-T fluorescence, mean of three wells (reading M25, Supplementary Fig. 47 source data): 3.518 | Th-T fluorescence, mean of three wells (reading M26, Supplementary Fig. 47 source data): 3.525 | Th-T fluorescence, mean of three wells (reading M27, Supplementary Fig. 47 source data): 3.564 | Th-T fluorescence, mean of three wells (reading M28, Supplementary Fig. 47 source data): 3.572 | Th-T fluorescence, mean of three wells (reading M29, Supplementary Fig. 47 source data): 3.591 | Th-T fluorescence, mean of three wells (reading M30, Supplementary Fig. 47 source data): 3.63 | Th-T fluorescence, mean of three wells (reading M31, Supplementary Fig. 47 source data): 3.6544 | Th-T fluorescence, mean of three wells (reading M32, Supplementary Fig. 47 source data): 3.711 | Th-T fluorescence, mean of three wells (reading M33, Supplementary Fig. 47 source data): 3.704 | Th-T fluorescence, mean of three wells (reading M34, Supplementary Fig. 47 source data): 3.671 | Th-T fluorescence, mean of three wells (reading M35, Supplementary Fig. 47 source data): 3.708 | Th-T fluorescence, mean of three wells (reading M36, Supplementary Fig. 47 source data): 3.706 | Th-T fluorescence, mean of three wells (time course, reading M57): 3.709 | Th-T fluorescence, mean of three wells (time course, reading M58): 3.763 | Th-T fluorescence, mean of three wells (time course, reading M59): 3.775 | Th-T fluorescence, mean of three wells (time course, reading M60): 3.734 | Th-T fluorescence, mean of three wells (time course, reading M61): 3.716 | Th-T fluorescence, mean of three wells (time course, reading M62): 3.783 | Th-T fluorescence, mean of three wells (time course, reading M63): 3.7203 | Th-T fluorescence, mean of three wells (time course, reading M64): 3.6972 | Th-T fluorescence, mean of three wells (time course, reading M65): 3.735 | Th-T fluorescence, mean of three wells (time course, reading M66): 3.755 | Th-T fluorescence, mean of three wells (time course, reading M67): 3.725 | Th-T fluorescence, mean of three wells (time-course reading M97, Supplementary Fig. 47 source data): 3.595 | Th-T fluorescence, mean of three wells (time-course reading M98, Supplementary Fig. 47 source data): 3.647 | Th-T fluorescence, mean of three wells (time-course reading M99, Supplementary Fig. 47 source data): 3.679 | Th-T fluorescence, mean of three wells (time-course reading M100, Supplementary Fig. 47 source data): 3.653 | Th-T fluorescence, mean of three wells (time-course reading M101, Supplementary Fig. 47 source data): 3.662 | Th-T fluorescence, mean of three wells (time-course reading M102, Supplementary Fig. 47 source data): 3.581 | Th-T fluorescence, mean of three wells (time-course reading M103, Supplementary Fig. 47 source data): 3.611 | Th-T fluorescence, mean of three wells (time-course reading M104, Supplementary Fig. 47 source data): 3.626 | Th-T fluorescence, mean of three wells (time-course reading M105, Supplementary Fig. 47 source data): 3.605 | Th-T fluorescence, mean of three wells (time-course reading M106, Supplementary Fig. 47 source data): 3.616 | Th-T fluorescence, mean of three wells (time-course reading M107, Supplementary Fig. 47 source data): 3.656 | Th-T fluorescence, mean of three wells (time-course reading M108, Supplementary Fig. 47 source data): 3.6 | Th-T fluorescence, mean of three wells (time-course reading M109, Supplementary Fig. 47 source data): 3.632 | Th-T fluorescence, mean of three wells (time-course reading M110, Supplementary Fig. 47 source data): 3.606 | Th-T fluorescence, mean of three wells (time-course reading M111, Supplementary Fig. 47 source data): 3.628 | Th-T fluorescence, mean of three wells (time-course reading M112, Supplementary Fig. 47 source data): 3.629 | Th-T fluorescence, mean of three wells (time-course reading M113, Supplementary Fig. 47 source data): 3.58 | Th-T fluorescence, mean of three wells (time-course reading M114, Supplementary Fig. 47 source data): 3.62 | Th-T fluorescence, mean of three wells (time-course reading M115, Supplementary Fig. 47 source data): 3.596 | Th-T fluorescence, mean of three wells (time-course reading M116, Supplementary Fig. 47 source data): 3.5953
